Values of other authors in patent publication US20240033249A1, “Drug Implants Containing Darolutamide and Methods of Use Thereof” (The Regents of the University of California, priority 2022, published 2024).

Details: assuming 600 mg daily dose; systemic (e.g., oral) administration

- steady state blood plasma concentration of Darolutamide: about 4.79 mg/L
SMILES: CC(O)c1cc(C(=O)N[C@@H](C)Cn2ccc(-c3ccc(C#N)c(Cl)c3)n2)[nH]n1 (stereo partly shown) [Darolutamide]
